Measured values taken from ChEMBL document CHEMBL3885881, “DrugMatrix”.

Species: Rattus norvegicus
Assay: DrugMatrix - Regimen: Daily Repeat
Format: toxicity, organism-based, Sprague-Dawley
Design: regimen Daily Repeat, gender Male, age 6-8 weeks
Settings: in vivo, po, route oral GAVAGE, vehicle 100 % WATER; for ABSOLUTE BASOPHIL / ABSOLUTE EOSINOPHIL / ABSOLUTE LYMPHOCYTE / ABSOLUTE MONOCYTE / ABSOLUTE SEGMENTED NEUTROPHIL / BASOPHIL / EOSINOPHIL / ERYTHROCYTE COUNT / HEMATOCRIT / HEMOGLOBIN / LEUKOCYTE COUNT / LYMPHOCYTE / MEAN CORPUSCULAR HEMOGLOBIN / MEAN CORPUSCULAR HEMOGLOBIN CONCENTRATION / MEAN CORPUSCULAR VOLUME / MONOCYTE / NEUTROPHIL / NUCLEATED RED BLOOD CELLS / PLATELET COUNT: tissue Blood; for ALANINE AMINOTRANSFERASE / ALKALINE PHOSPHATASE / ASPARTATE AMINOTRANSFERASE / BLOOD UREA NITROGEN / CARBON DIOXIDE / CHLORIDE / CHOLESTEROL / CREATINE PHOSPHOKINASE / CREATININE / GLUCOSE / LACTATE DEHYDROGENASE / LIPASE / PHOSPHORUS / POTASSIUM / SODIUM / TOTAL BILIRUBIN / TOTAL PROTEIN / URIC ACID: tissue Plasma
[1] = 22 mg/kg, 120 h, dose level Low, time 5 day
[2] = 320 mg/kg, 72 h, dose level High, time 3 day
[3] = 320 mg/kg, 120 h, dose level High, time 5 day

`COc1ccc(C(CN(C)C)C2(O)CCCCC2)cc1` (stereo unspecified) [VENLAFAXINE] was tested, and the “ABSOLUTE BASOPHIL” value [1] was 0 CELLS/uL, the “ABSOLUTE EOSINOPHIL” value [1] was 0 CELLS/uL and the “ABSOLUTE LYMPHOCYTE” value [1] was 7105.33 CELLS/uL. The “ABSOLUTE MONOCYTE” value [1] was 102.33 CELLS/uL, the “ABSOLUTE SEGMENTED NEUTROPHIL” value [1] was 692.33 CELLS/uL and the BASOPHIL [1] was 0%. For the same molecule, the EOSINOPHIL [1] was 0%, the “ERYTHROCYTE COUNT” value [1] was 5.16 x10E6/uL and the HEMATOCRIT [1] was 32.4%. For the same molecule, the HEMOGLOBIN [1] was 12.8 G/DL, the “LEUKOCYTE COUNT” value [1] was 7.9 x10E3/uL and the LYMPHOCYTE [1] was 90%. For the same molecule, the “MEAN CORPUSCULAR HEMOGLOBIN” value [1] was 24.83 pg, the “MEAN CORPUSCULAR HEMOGLOBIN CONCENTRATION” value [1] was 39.5 G/DL and the “MEAN CORPUSCULAR VOLUME” value [1] was 62.73 fL. For the same molecule, the MONOCYTE [1] was 1.33%, the NEUTROPHIL [1] was 8.67% and the “NUCLEATED RED BLOOD CELLS” value [1] was 0 /100WBC. The “PLATELET COUNT” value [1] was 1242 x10E3/uL, the “ALANINE AMINOTRANSFERASE” value [1] was 58.67 u/L and the “ALKALINE PHOSPHATASE” value [1] was 353 u/L. For the same molecule, the “ASPARTATE AMINOTRANSFERASE” value [1] was 97.67 u/L, the “BLOOD UREA NITROGEN” value [1] was 15 mg/dL and the “CARBON DIOXIDE” value [1] was 29 mmol/L. The CHLORIDE [1] was 106 MEQ/L, the CHOLESTEROL [1] was 81 mg/dL and the “CREATINE PHOSPHOKINASE” value [1] was 155 u/L. For the same molecule, the CREATININE [1] was 0.18 mg/dL, the GLUCOSE [1] was 132.33 mg/dL and the “LACTATE DEHYDROGENASE” value [1] was 132 u/L. The LIPASE [1] was 9.67 u/L, the PHOSPHORUS [1] was 11.27 mg/dL and the POTASSIUM [1] was 6.7 MEQ/L. The SODIUM [1] was 152.17 MEQ/L, the “TOTAL BILIRUBIN” value [1] was 0.17 mg/dL and the “TOTAL PROTEIN” value [1] was 6.63 G/DL. For the same molecule, the “URIC ACID” value [1] was 1.17 mg/dL, the “ABSOLUTE BASOPHIL” value [2] was 0 CELLS/uL and the “ABSOLUTE EOSINOPHIL” value [2] was 0 CELLS/uL. For the same molecule, the “ABSOLUTE LYMPHOCYTE” value [2] was 16169.33 CELLS/uL, the “ABSOLUTE MONOCYTE” value [2] was 308 CELLS/uL and the “ABSOLUTE SEGMENTED NEUTROPHIL” value [2] was 1489.33 CELLS/uL. For the same molecule, the BASOPHIL [2] was 0%, the EOSINOPHIL [2] was 0% and the “ERYTHROCYTE COUNT” value [2] was 5.59 x10E6/uL. For the same molecule, the HEMATOCRIT [2] was 35.1%, the HEMOGLOBIN [2] was 13.63 G/DL and the “LEUKOCYTE COUNT” value [2] was 17.97 x10E3/uL. For the same molecule, the LYMPHOCYTE [2] was 89.67%, the “MEAN CORPUSCULAR HEMOGLOBIN” value [2] was 24.4 pg and the “MEAN CORPUSCULAR HEMOGLOBIN CONCENTRATION” value [2] was 38.83 G/DL. For the same molecule, the “MEAN CORPUSCULAR VOLUME” value [2] was 62.7 fL, the MONOCYTE [2] was 1.67% and the NEUTROPHIL [2] was 8.67%. The “NUCLEATED RED BLOOD CELLS” value [2] was 0 /100WBC, the “PLATELET COUNT” value [2] was 1276.67 x10E3/uL and the “ALANINE AMINOTRANSFERASE” value [2] was 53.67 u/L. For the same molecule, the “ALKALINE PHOSPHATASE” value [2] was 355.33 u/L, the “ASPARTATE AMINOTRANSFERASE” value [2] was 109 u/L and the “BLOOD UREA NITROGEN” value [2] was 14.33 mg/dL. For the same molecule, the “CARBON DIOXIDE” value [2] was 22.33 mmol/L, the CHLORIDE [2] was 104 MEQ/L and the CHOLESTEROL [2] was 67.67 mg/dL. For the same molecule, the “CREATINE PHOSPHOKINASE” value [2] was 922.67 u/L, the CREATININE [2] was 0.19 mg/dL and the GLUCOSE [2] was 204 mg/dL. The “LACTATE DEHYDROGENASE” value [2] was 452.67 u/L, the LIPASE [2] was 10 u/L and the PHOSPHORUS [2] was 13.37 mg/dL. The POTASSIUM [2] was 5.82 MEQ/L, the SODIUM [2] was 147.33 MEQ/L and the “TOTAL BILIRUBIN” value [2] was 0.17 mg/dL. For the same molecule, the “TOTAL PROTEIN” value [2] was 5.87 G/DL, the “URIC ACID” value [2] was 1.9 mg/dL and the “ABSOLUTE BASOPHIL” value [3] was 0 CELLS/uL. The “ABSOLUTE EOSINOPHIL” value [3] was 0 CELLS/uL, the “ABSOLUTE LYMPHOCYTE” value [3] was 15088.33 CELLS/uL and the “ABSOLUTE MONOCYTE” value [3] was 152.33 CELLS/uL. For the same molecule, the “ABSOLUTE SEGMENTED NEUTROPHIL” value [3] was 1792.67 CELLS/uL, the BASOPHIL [3] was 0% and the EOSINOPHIL [3] was 0%. The “ERYTHROCYTE COUNT” value [3] was 5.64 x10E6/uL, the HEMATOCRIT [3] was 34.3% and the HEMOGLOBIN [3] was 13.5 G/DL. The “LEUKOCYTE COUNT” value [3] was 17.03 x10E3/uL, the LYMPHOCYTE [3] was 88.33% and the “MEAN CORPUSCULAR HEMOGLOBIN” value [3] was 23.93 pg. For the same molecule, the “MEAN CORPUSCULAR HEMOGLOBIN CONCENTRATION” value [3] was 39.37 G/DL, the “MEAN CORPUSCULAR VOLUME” value [3] was 60.83 fL and the MONOCYTE [3] was 1%. For the same molecule, the NEUTROPHIL [3] was 10.67%, the “NUCLEATED RED BLOOD CELLS” value [3] was 0 /100WBC and the “PLATELET COUNT” value [3] was 1189 x10E3/uL. For the same molecule, the “ALANINE AMINOTRANSFERASE” value [3] was 58.33 u/L, the “ALKALINE PHOSPHATASE” value [3] was 429.33 u/L and the “ASPARTATE AMINOTRANSFERASE” value [3] was 79.33 u/L. For the same molecule, the “BLOOD UREA NITROGEN” value [3] was 16.67 mg/dL, the “CARBON DIOXIDE” value [3] was 25 mmol/L and the CHLORIDE [3] was 106 MEQ/L. The CHOLESTEROL [3] was 72.33 mg/dL, the “CREATINE PHOSPHOKINASE” value [3] was 133.33 u/L and the CREATININE [3] was 0.2 mg/dL. The GLUCOSE [3] was 162.33 mg/dL, the “LACTATE DEHYDROGENASE” value [3] was 100 u/L and the LIPASE [3] was 10 u/L. It also gave a PHOSPHORUS [3] of 13.67 mg/dL, a POTASSIUM [3] of 6.24 MEQ/L and an SODIUM [3] of 150.03 MEQ/L. The “TOTAL BILIRUBIN” value [3] was 0.13 mg/dL, the “TOTAL PROTEIN” value [3] was 5.73 G/DL and the “URIC ACID” value [3] was 1.4 mg/dL.
